Data published in PMC6173509, “C-3- and C-4-Substituted Bicyclic Coumarin Sulfamates as Potent Steroid Sulfatase Inhibitors” (ACS Omega, 2018).

Tests used:
[1] = target: T1, steroid sulfatase (STS) (Homo sapiens, UniProt P08842); set-up: endogenous in cells; host or cells: MCF-7 breast cancer cells; conditions: cited from earlier work
T1 sequence (P08842 22-583): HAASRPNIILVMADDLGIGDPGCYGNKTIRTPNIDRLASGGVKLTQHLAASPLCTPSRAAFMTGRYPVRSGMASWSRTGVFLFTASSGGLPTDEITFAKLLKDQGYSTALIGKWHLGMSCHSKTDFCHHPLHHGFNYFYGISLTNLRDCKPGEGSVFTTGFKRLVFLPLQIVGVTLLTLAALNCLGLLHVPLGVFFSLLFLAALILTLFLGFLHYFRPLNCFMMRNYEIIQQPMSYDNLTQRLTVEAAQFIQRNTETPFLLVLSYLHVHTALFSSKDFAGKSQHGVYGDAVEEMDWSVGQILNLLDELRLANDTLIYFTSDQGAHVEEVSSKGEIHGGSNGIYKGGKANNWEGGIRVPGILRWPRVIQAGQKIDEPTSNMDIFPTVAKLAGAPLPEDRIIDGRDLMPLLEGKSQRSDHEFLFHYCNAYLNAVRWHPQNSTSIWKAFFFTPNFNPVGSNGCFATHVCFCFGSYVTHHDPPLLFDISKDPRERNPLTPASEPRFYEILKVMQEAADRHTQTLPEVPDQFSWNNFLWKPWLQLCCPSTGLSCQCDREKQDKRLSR

[2] = rodent; cited from earlier work
[3] = target: T1, steroid sulfatase (STS); set-up: a placental microsomal preparation from a sulfatase-positive human placenta from a normal term pregnancy; from tissue; host or cells: human placenta (microsomal preparation); conditions: cited from earlier work; for % Inhibition of STS Activity in Placental Microsomes at 0.1 μM: 0.1 μM inhibitor; for % Inhibition of STS Activity in Placental Microsomes at 1 μM: 1 μM inhibitor; for % Inhibition of STS Activity in Placental Microsomes at 10 μM: 10 μM inhibitor
[4] = set-up: method as in PMID 18288656, PMID 18288656, PMID 24604234; conditions: rats; ref 12a, 12b, 14; cited from earlier work
[5] = target: T1, steroid sulfatase (STS); test: STS inhibition in intact MCF-7 breast cancer cells; type: cell-based; set-up: endogenous in cells; host or cells: MCF-7 breast cancer cells; conditions: for inhibition at 0.1 µM: MCF7, read-out: % Inhibition of STS Activity in Intact MCF-7 Breast Cancer Cells at 0.1 μM; for inhibition at 1 µM: MCF7, read-out: % Inhibition of STS Activity in Intact MCF-7 Breast Cancer Cells at 1 μM; for inhibition at 10 µM: MCF7, read-out: % Inhibition of STS Activity in Intact MCF-7 Breast Cancer Cells at 10 μM; for IC50: 3 nM E1S; for inhibition at 0.01 µM: MCF7, read-out: % Inhibition of STS Activity in Intact MCF-7 Breast Cancer Cells at 0.01 μM
[6] = target: T1, steroid sulfatase (STS); test: STS inhibition in placental microsomes; type: biochemical; set-up: a placental microsomal preparation from a sulfatase-positive human placenta from a normal term pregnancy; from tissue; host or cells: human placenta (microsomal preparation); conditions: 20 μM E1S; for inhibition at 0.01 µM: 0.01 μM inhibitor; for inhibition at 0.1 µM: 0.1 μM inhibitor; for inhibition at 1 µM: 1 μM inhibitor; for inhibition at 10 µM: 10 μM inhibitor

Cc1cc(=O)oc2cc(OS(N)(=O)=O)ccc12 [compound 3, 4-methylcoumarin-7-O-sulfamate]
% Inhibition of STS Activity in Intact MCF-7 Breast Cancer Cells at 0.01 μM ([1]; 0.01 μM inhibitor): <10%
% Inhibition of STS Activity in Intact MCF-7 Breast Cancer Cells at 0.1 μM ([1]; 0.1 μM inhibitor): 43%
estrogenic activity [2]: no rodent estrogenic activity
% Inhibition of STS Activity in Placental Microsomes at 0.1 μM [3]: <10%
% Inhibition of STS Activity in Placental Microsomes at 1 μM [3]: 63%

CCc1cc(=O)oc2cc(OS(N)(=O)=O)ccc12 [compound 4]
% Inhibition of STS Activity in Placental Microsomes at 0.1 μM [3]: 35%
% Inhibition of STS Activity in Placental Microsomes at 1 μM [3]: 88%
% Inhibition of STS Activity in Placental Microsomes at 10 μM [3]: >99%

C[C@]12CC[C@@H]3c4ccc(OS(N)(=O)=O)cc4CC[C@H]3[C@@H]1CCC2=O [compound 1, estrone-3-O-sulfamate]
estrogenicity [4]: highly estrogenic

CCCCCc1c(C)c2ccc(OS(N)(=O)=O)cc2oc1=O [compound 28, 4-Methyl-3-pentylcoumarin-7-O-sulfamate]
inhibition at 0.1 µM [5]: 97%
inhibition at 1 µM [5]: 99%
inhibition at 10 µM [5]: 100%
inhibition at 0.01 µM [6]: 41%
inhibition at 0.1 µM [6]: 94%
inhibition at 1 µM [6]: 99%
inhibition at 10 µM [6]: 100%
IC50 [6]: 12 nM

Cc1c(CCc2ccccc2)c(=O)oc2cc(OS(N)(=O)=O)ccc12 [compound 42, 4-Methyl-3-(2-phenylethyl)coumarin-7-O-sulfamate]
IC50 [5]: 1.1 nM
inhibition at 0.01 µM [5]: 93%
inhibition at 0.1 µM [5]: 98%
inhibition at 1 µM [5]: 99%
inhibition at 0.01 µM [6]: 45%
inhibition at 0.1 µM [6]: 91%
inhibition at 1 µM [6]: 99%
inhibition at 10 µM [6]: 100%
IC50 [6]: 33 nM

Cc1c(CCCc2ccccc2)c(=O)oc2cc(OS(N)(=O)=O)ccc12 [compound 43, 4-Methyl-3-[3-phenylpropyl]coumarin-7-O-sulfamate]
inhibition at 0.1 µM [5]: 87%
inhibition at 1 µM [5]: 99%
inhibition at 10 µM [5]: 100%
inhibition at 0.1 µM [6]: 47%
inhibition at 1 µM [6]: 99%

CCCCCCCCc1c(C)c2ccc(OS(N)(=O)=O)cc2oc1=O [compound 31, 4-Methyl-3-octylcoumarin-7-O-sulfamate]
inhibition at 0.1 µM [5]: 99%
inhibition at 1 µM [5]: 100%
inhibition at 10 µM [5]: 100%
inhibition at 0.01 µM [6]: 21%
inhibition at 0.1 µM [6]: 71%
inhibition at 1 µM [6]: 98%
inhibition at 10 µM [6]: 99%

CCCCCCc1cc(=O)oc2cc(OS(N)(=O)=O)ccc12 [compound 11, 4-Hexylcoumarin-7-O-sulfamate]
inhibition at 0.1 µM [5]: 87%
inhibition at 1 µM [5]: 90%
inhibition at 10 µM [5]: 93%
inhibition at 0.01 µM [6]: 6%
inhibition at 0.1 µM [6]: 70%
inhibition at 1 µM [6]: 97%
inhibition at 10 µM [6]: 99%
IC50 [6]: 52 nM

NS(=O)(=O)Oc1ccc2c(-c3ccccc3)cc(=O)oc2c1 [compound 22, 4-Phenylcoumarin-7-O-sulfamate]
inhibition at 0.1 µM [5]: 36%
inhibition at 1 µM [5]: 79%
inhibition at 10 µM [5]: 87%
IC50 [6]: 200 nM

CCCc1c(C)c2ccc(OS(N)(=O)=O)cc2oc1=O [compound 8]
% Inhibition of STS Activity in Placental Microsomes at 0.1 μM [3]: 83%
% Inhibition of STS Activity in Placental Microsomes at 1 μM [3]: 97%
% Inhibition of STS Activity in Placental Microsomes at 10 μM [3]: >99%

CCCCCCCCCc1c(C)c2ccc(OS(N)(=O)=O)cc2oc1=O [compound 32, 4-Methyl-3-nonylcoumarin-7-O-sulfamate]
IC50 [5]: ~10 nM
inhibition at 0.01 µM [5]: 57%
inhibition at 0.1 µM [5]: 96%
inhibition at 1 µM [5]: 99%
inhibition at 10 µM [5]: 99%
inhibition at 0.01 µM [6]: 21%
inhibition at 0.1 µM [6]: 85%
inhibition at 1 µM [6]: 97%
inhibition at 10 µM [6]: 98%

CCCCCCc1c(C)c2ccc(OS(N)(=O)=O)cc2oc1=O [compound 29, 3-Hexyl-4-methylcoumarin-7-O-sulfamate]
inhibition at 0.1 µM [5]: 99%
inhibition at 1 µM [5]: 100%
inhibition at 10 µM [5]: 100%
inhibition at 0.01 µM [6]: 13%
inhibition at 0.1 µM [6]: 88%
inhibition at 1 µM [6]: 99%
inhibition at 10 µM [6]: 99%

CCc1c(C)c2ccc(OS(N)(=O)=O)cc2oc1=O [compound 7]
% Inhibition of STS Activity in Placental Microsomes at 0.1 μM [3]: 57%
% Inhibition of STS Activity in Placental Microsomes at 1 μM [3]: 96%
% Inhibition of STS Activity in Placental Microsomes at 10 μM [3]: >99%

CCCc1cc(=O)oc2cc(OS(N)(=O)=O)ccc12 [compound 5]
% Inhibition of STS Activity in Placental Microsomes at 0.1 μM [3]: 42%
% Inhibition of STS Activity in Placental Microsomes at 1 μM [3]: 94%
% Inhibition of STS Activity in Placental Microsomes at 10 μM [3]: 96%

NS(=O)(=O)Oc1ccc2c(Cc3ccccc3)cc(=O)oc2c1 [compound 23, 4-Benzylcoumarin-7-O-sulfamate]
IC50 [5]: 75 nM
inhibition at 0.01 µM [5]: 8%
inhibition at 0.1 µM [5]: 55%
inhibition at 1 µM [5]: 70%
inhibition at 10 µM [5]: 84%
inhibition at 0.01 µM [6]: 2%
inhibition at 0.1 µM [6]: 61%
inhibition at 1 µM [6]: 96%
inhibition at 10 µM [6]: 99%
IC50 [6]: 64 nM
